Holding throughout (type): ADME, organism-based
Data set [1] is described as follows: AUC (0 to 4 hrs) in mouse at 20 mg/kg. Also on record: time < 4 hr, dose 20 mg/kg. As to conditions: plasma.
The nature of data set [2]: Volume of distribution at steady state in rat at 5 mg/kg, iv and 75 mg/kg, po. The conditions noted are these: in vivo, read-out: Vdss.
A short description of data set [3]: Oral bioavailability in rat at 75 mg/kg. As to conditions: in vivo.
The nature of data set [4]: Half life in mouse at 5 mg/kg, iv and 75 mg/kg, po. As to conditions: in vivo.
A short description of data set [5]: Total clearance in rat at 5 mg/kg, iv and 75 mg/kg, po. As to conditions: in vivo.
Data set [6] is described as follows: Oral bioavailability in mouse at 75 mg/kg. The conditions noted are these: in vivo.
Data set [7] in a line: Volume of distribution at steady state in mouse at 5 mg/kg, iv and 75 mg/kg, po. As to conditions: in vivo, read-out: Vdss.
A short description of data set [8]: Half life in rat at 5 mg/kg, iv and 75 mg/kg, po. The conditions noted are these: in vivo.
Data set [9] is described as follows: Total clearance in mouse at 5 mg/kg, iv and 75 mg/kg, po. The conditions noted are these: in vivo.

The compound `Cc1cc(N2CCN(C(=O)OC(C)(C)C)CC2)cc2[nH]c(-c3c(NC[C@@H](O)c4cccc(Cl)c4)cc[nH]c3=O)nc12` had an AUC(0-t) at 4 h in data set [1] of 8.3 µM·h.

With `Cc1cc(N2CCN(C(=O)CCCF)CC2)cc2[nH]c(-c3c(NC[C@@H](O)c4cccc(Cl)c4)cc[nH]c3=O)nc12`, the AUC(0-t) at 4 h in [1] was determined as 4.5 µM·h.

For the compound `Cc1cc(N2CCN(S(C)(=O)=O)CC2)cc2[nH]c(-c3c(NC[C@@H](O)c4cccc(Cl)c4)cc[nH]c3=O)nc12`, the AUC(0-t) at 4 h in [1] stood at 7.2 µM·h.

For the compound `CCN1CCN(c2cc(C)c3nc(-c4c(NC[C@@H](O)c5cccc(Cl)c5)cc[nH]c4=O)[nH]c3c2)CC1`, in data set [1], the AUC(0-t) at 4 h is 1 µM·h. `Cc1cc(N2CCN(CCC#N)CC2)cc2nc(-c3c(NC[C@@H](O)c4cccc(Cl)c4)cc[nH]c3=O)[nH]c12`: the AUC(0-t) at 4 h in data set [1] is 22.1 µM·h. Compared with the last compound, the AUC(0-t) at 4 h is about 22-fold higher. The same measure, in the same setting: to `Cc1cc(N2CCNCC2)cc2[nH]c(-c3c(NC[C@@H](O)c4cccc(Cl)c4)cc[nH]c3=O)nc12` belongs 26.5 µM·h; to `Cc1cc(N2CCN(CC#N)CC2)cc2[nH]c(-c3c(NC[C@@H](O)c4cccc(Cl)c4)cc[nH]c3=O)nc12`, 10.3 µM·h. On the same count and under the same terms, to `Cc1cc(N2CCOCC2)cc2[nH]c(-c3c(NC[C@@H](O)c4cccc(Cl)c4)cc[nH]c3=O)nc12` belongs 50 µM·h; to `Cc1cc(N2CCN(CCF)CC2)cc2[nH]c(-c3c(NC[C@@H](O)c4cccc(Cl)c4)cc[nH]c3=O)nc12`, 17.7 µM·h.

For the compound `Cc1cc(N2CCN(C)CC2)cc2[nH]c(-c3c(NC[C@@H](O)c4cccc(Cl)c4)cc[nH]c3=O)nc12`, the AUC(0-t) at 4 h in [1] came to 3.4 µM·h.

On to `CNC(=O)CN1CCN(c2cc(C)c3nc(-c4c(NC[C@@H](O)c5cccc(Cl)c5)cc[nH]c4=O)[nH]c3c2)CC1`, for which, in data set [1], the AUC(0-t) at 4 h amounted to 1.6 µM·h. Take `Cc1cc(N2CCN(CC(=O)NCCF)CC2)cc2[nH]c(-c3c(NC[C@@H](O)c4cccc(Cl)c4)cc[nH]c3=O)nc12`: the AUC(0-t) at 4 h in data set [1] was found to be 1.4 µM·h. Still for that read-out and setting: to `Cc1cc(N2CCN(CCCF)CC2)cc2[nH]c(-c3c(NC[C@@H](O)c4cccc(Cl)c4)cc[nH]c3=O)nc12` belongs 11.4 µM·h; to `CC(=O)N1CCN(c2cc(C)c3nc(-c4c(NC[C@@H](O)c5cccc(Cl)c5)cc[nH]c4=O)[nH]c3c2)CC1`, 3.1 µM·h. Regarding `COCCN1CCN(c2cc(C)c3nc(-c4c(NC[C@@H](O)c5cccc(Cl)c5)cc[nH]c4=O)[nH]c3c2)CC1`, the AUC(0-t) at 4 h in [1] amounted to 11.1 µM·h. Moreover, the results for the Vd in data set [2] and in data set [7] were 2.9 L/kg and 4.9 L/kg, respectively. Further, the bioavailability in [3] and in [6] was 26% in each case. For the same compound, the values for the half-life in data set [4] and in [8] were 2.9 h and 1.9 h, respectively. Besides, the results for the clearance in data set [5] and in data set [9] were 27.8 mL/min/kg and 25.2 mL/min/kg, respectively. The compound `COC(=O)N1CCN(c2cc(C)c3nc(-c4c(NC[C@@H](O)c5cccc(Cl)c5)cc[nH]c4=O)[nH]c3c2)CC1` returned an AUC(0-t) at 4 h in data set [1] of 57.1 µM·h. Same read-out and setting: to `CCOC(=O)N1CCN(c2cc(C)c3nc(-c4c(NC[C@@H](O)c5cccc(Cl)c5)cc[nH]c4=O)[nH]c3c2)CC1` belongs 25.3 µM·h.
